Consider one substance from patent US11717557B2, “Use of PRG4 as an anti-inflammatory agent” (Lubris LLC, priority 2015, dated 2023).

One test relates to Prg4−/− synoviocytes. The experiment in a line: Cytokine-induced Prg4−/− synoviocyte proliferation. Format: cell-based, mice. To be noted: p<0.001. As to the method:
rhPRG4 binding to CD44 and competition with high molecular weight hyaluronic acid (HMW HA) was evaluated using a direct enzyme linked immunosorbent assay (ELISA) and surface plasmon resonance. Sialidase-A and O-glycosidase digestion of rhPRG4 was performed and CD44 binding was evaluated using ELISA. Rheumatoid arthritis fibroblast-like synoviocytes (RA-FLS) were stimulated with interleukin-1 beta (IL-1β) or tumor necrosis factor alpha (TNF-α) for 48 hours in the presence or absence of rhPRG4 or HMW HA at 20, 40 and 80 μg/mL and cell proliferation was measured. CD44 contribution was assessed by co-incubation with an anti-CD44 antibody (IM7). The anti-proliferative effect of rhPRG4 was investigated following treatment of Prg4−/− synoviocytes with IL-1β or TNF-α in the presence or absence of IM7.
Synovial tissue was harvested from Prg4−/− and Prg4+/+ male mice (8-10 weeks old; 5-8 animals per genotype) and digested with pronase enzyme (2 mg/mL; Sigma Aldrich) in sterile HBSS buffer for 30 min at 37° C. with shaking. This was followed by digestion with type I collagenase (1 mg/mL; Sigma Aldrich) for 4 hours at 37° C. with shaking. The enzymatic reaction was stopped using DMEM+10% FBS. Cells were grown in DMEM+10% FBS and Prg4−/− synoviocytes were used between 2nd and 4th passages while Prg4+/+ synoviocytes were used in their second passage.

For test [1], the system named is osteoarthritic (OA) synovial fluid cells. Briefly: Cytokines secreted by osteoarthritic synoviocytes (Luminex). Format: cell-based, human. To be noted: rhPRG4 90 μg/mL, 24 hours, versus PBS. As to the method:
(§1) Synovial fluid cells were obtained from normal and osteoarthritic (OA) patients and purified with CD90+ following an immune cell depletion. The cells were plated at 10,000 per well and suspended in media containing DMEM, heat-inactivated Hyclone FBS (10%), and Anti-Anti (1%). The assays contained the cell suspension (cells+ media) at 180 μL and the ligands at 20 μL for a total volume of 200 μL. Recombinant lubricin (rhPRG4) was then introduced to the cells at a concentration of 90 μg/mL and the negative control was PBS. The plate was then incubated at 37° C. at 5% CO2 for 24 hours, after which the supernatants were collected for cytokine analysis via the Luminex multiplex platform.

Test [2] has as its system normal synovial fluid cells. The experiment in a line: Cytokines secreted by normal synoviocytes (Luminex). Format: cell-based, human. To be noted: rhPRG4 90 μg/mL, 24 hours, lubricin vs. PBS. The method, then:
as §1

Another test deals with traumatic brain injury. The experiment in a line: Traumatic brain injury model, controlled cortical impact, Western blotting of cerebral cortex. Format: in vivo, rats. As to the method:
Approximately one hour after traumatic brain injury to rats, using an established brain injury model involving a controlled cortical impact, rhPRG4 was administered intravenously to test rats at an approximate dose of 2.5 mg/Kg. Normal saline (0.9% NaCl) was administered intravenously to control rats. One day later, brains were harvested and the samples of the cerebral cortex surrounding the post-traumatic lesion were analyzed using Western blotting.

For another test, the system named is whole citrated blood. The experiment in a line: Lubricin alone, inflammatory cytokines in whole blood. Format: cell-based, human. To be noted: lubricin 0.57 mg/mL, 60 minutes; versus saline control. The method, then:
Utilizing the same approach the effect of lubricin on the generation of inflammatory cytokines in whole blood was also studied using similar experimental settings. In these studies the effect of lubricin (0.57 mg/mL) was studied by supplementing it to the whole citrated blood drawn from the normal healthy volunteers. The samples were profiled for inflammatory cytokine levels along with a saline control in samples incubated for 60 minutes. Whole blood was centrifuged to obtain plasma which was profiled for various inflammatory cytokines using high sensitivity cytokine assay.

The next test deals with whole blood. Briefly: Lubricin on TNF-α mediated inflammatory cytokine generation in whole blood. Format: cell-based, human. The method, then:
The effect of lubricin on TNF-α mediated inflammatory cytokine generation was studied using Biochip Array technology. Recombinant TNF-α was used as a trigger to generate inflammatory cytokines in whole blood. The effect of lubricin was studied on the TNF-α mediated generation of various cytokines. TNF-α alone at a concentration of […] was supplemented to the whole blood which was incubated for 60 minutes at 37° C. TNF-α was supplemented to whole blood in a 1:10 dilution. The modulatory effects of lubricin on TNF-α-mediated generation of various cytokines were studied by supplementing lubricin at 0.57 mg/mL in the whole blood immediately prior to addition of TNF-α. After 60 minutes plasma was obtained from centrifugation and analyzed for inflammatory cytokine using Randox Biochip arrays.

For test [3], the system named is Rheumatoid arthritis fibroblast-like synoviocytes (RA-FLS). The experiment in a line: Cytokine-induced RA-FLS proliferation (MTS). Format: cell-based. Conditions: 48 hours, p<0.05. The method, then: Rheumatoid arthritis fibroblast-like synoviocytes (RA-FLS; Cell Applications, USA) between 3rd and 6th passages were used to conduct these experiments. In sterile 96 well plates, RA-FLS (5,000 cells per well in 80 μL) were cultured in DMEM supplemented with 1% FBS and 1 mM pyruvate and stimulated with recombinant human interleukin-1 beta (IL-1β; R & D systems) at 20 ng/mL or tumor necrosis factor alpha (TNF-α; R & D systems) at 5 ng/mL for 48 hours at 37° C. in the absence or presence of rhPRG4 or HMW HA at a final concentration of 20, 40 or 80 μg/mL. The total volume in each well was 200 μL. Cell proliferation, an indication of inflammation, was determined using the CellTiter 96 AQueous one solution cell proliferation assay (MTS; Promega, USA) and the 490 nm absorbance was determined. Data is presented as the number of fold change in 490 nm absorbance compared to untreated control RA-FLS. The data represents the average of 3 independent experiments with at least triplicate wells per treatment. To evaluate the contribution of CD44 to the effect of rhPRG4 or HMW HA, RA-FLS were stimulated with IL-1β or TNF-α as described above. Treatment with rhPRG4 or HMW HA was conducted to a final concentration of 80 μg/mL in the absence or presence of IM7 (Abcam, USA), a CD44 neutralizing antibody that recognizes a conserved epitope across all CD44 isoforms (Samson et al., Exp Eye Res, 2014; 127C:14-19), at a final dilution of 1:200. The total volume in each well was 200 μl. Cell proliferation across the experimental groups was determined as described above and data is presented as the number of fold change in 490 nm absorbance compared to untreated control RA-FLS. The data represents the average of 3 independent experiments with at least triplicate wells per treatment.

The mark [4] stands for this setting: approx. 2.5 mg/Kg intravenously, versus normal saline.

Take “rhPRG4: full-length recombinant human PRG4 (lubricin) glycoprotein produced by CHO-M cells (Lubris), Mr≅240 KDa”: in the test with Prg4−/− synoviocytes, the “IL-1β induced proliferation of Prg4−/− synoviocytes” value is given as “significantly inhibited” and the “TNF-α induced proliferation of Prg4−/− synoviocytes” value is reported as “significantly inhibited”. Further, in test [1], the “FGF-2 and IL-1Ra cytokines” value is given as “down-regulation”. Moreover, the cytokine response entry in test [2] is given as “did not show any changes”. The “down regulation of Galectin 3” value in the test on traumatic brain injury (approx. 2.5 mg/Kg intravenously about one hour after injury, brains harvested one day later, versus normal saline) is 74%. In addition, in the test on traumatic brain injury (setting [4]), the “attenuation of post-traumatic synthesis of matrix metalloproteinase 9” value worked out at 94% and the “inhibition of the conversion of pro-matrix metalloproteinase 2 to its enzymatically active form” value is listed as 64%. In the test on traumatic brain injury (approx. 2.5 mg/Kg intravenously, versus normal saline-treated rats), the “reduction in the magnitude of post-traumatic influx of monocytes into the injured brain parenchyma” value is 60%. The “reduction of the permeability of the blood-brain barrier” value with traumatic brain injury (assessed by level of albumin in traumatized brain tissue, approx. 2.5 mg/Kg intravenously) amounted to 80%. Further, in the test with whole citrated blood, the “VEGF, IL8, IL6 and IL10” value is “most prominent decrease”; the “production of IL-4, IL-6, IL-8, IL-10, VEGF, TNF-α, IL-1β, MCP-1 and EGF” value is on record as “decrease”. Moreover, the “IL-6, IL-8, IL-10, VEGF, TNF-α, IL-1β and EGF” value in the test with whole blood (lubricin 0.57 mg/mL before TNF-α 100 mg/mL, 60 minutes at 37° C., versus TNF-α alone) was “decrease”. In addition, the “decrease of the levels of cytokines” value in the test with whole blood (lubricin 0.57 mg/mL, versus TNF-α alone) is listed as 10-100%. Further, the “TNF-α stimulated IFN-γ and TNF-α” value with whole blood (lubricin 0.57 mg/mL, versus stimulation in the absence of lubricin) is “most dramatic decrease”. For the same substance, the “RA-FLS proliferation with IL-1β stimulation” value in test [3] (IL-1β 20 ng/mL, treatment 40 and 80 μg/mL) is “significantly suppressed”. Besides, in test [3] (TNF-α 5 ng/mL, treatment 20, 40 and 80 μg/mL), the “RA-FLS proliferation with TNF-α stimulation” value is given as “significantly suppressed”.
